The values below are quoted from earlier work in patent publication US6444224B1 (Interag, priority 1997, dated 2002).

Data set [1] concerns pigs. Particulars: oral, once daily at feeding.
The test system of data set [2] is pigs. Particulars: 15, 25, 50 mg per day (IM) for 14 days.

SMILES strings stand for the structures.

Take `C=CC[C@]1(O)CC[C@H]2[C@@H]3CCC4=CC(=O)CCC4=C3C=C[C@@]21C` [altrenogest]: the “Effectiveness to control oestrus and ovulation” value with pigs [1] is “effective”. Regarding `C=CC(C)NC(=S)NNC(=S)NC` (stereo not shown) [methallibure], the “Effectiveness to control oestrus and ovulation” value in the data set on pigs [1] is reported as “effective”. For the molecule `CC(=O)[C@H]1CC[C@H]2[C@@H]3CCC4=CC(=O)CC[C@]4(C)[C@H]3CC[C@]12C` [progesterone], in the data set with pigs [2], the “Control of the oestrus cycle” value was “results in control of the oestrus cycle” and the Fertility result was “poor fertility results”.
